Experimental findings from US20240294543A1, “CYCLOHEPTA-THIENO-DIAZEPINE DERIVATIVES AS GABA A GAMMA1 PAM” (Hoffmann-La Roche Inc., priority 2021, published 2024) are described below.

pKi: −log10 of the molar value.

The term pKi denotes −log10 of the Ki, conventionally taken in molar units. A higher pKi goes with a low Ki.

For assay [1], the target named is human GABAA α1β3γ2 receptor (Homo sapiens (Human), UniProt P14867+P18507). In words: Radioligand binding assay, competition for [3H]Flumazenil, γ2-containing GABAA subtypes. The note with it: for γ2/γ1 Selectivity Ratio: Ki α1β3γ2 (nM)/Ki α2β2γ1 (nM); for γ2/γ1 Selectivity Ratio / LogSel: Table 1; for LogSel: Log[Ki α1β3γ2 (nM)/Ki α2β2γ1 (nM)]. The procedure, abridged:
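Competition against [3H]Flumazenil binding in HEK293F cells transiently expressing human α1β3γ2 receptors, pellets resuspended in mannitol buffer pH 7,2-7,4. Incubated to equilibrium 1 hour at 4° C, filtered and washed with ice-cold 50 mM Tris pH 7.5, bound radioactivity by liquid scintillation counting. Ki values are means of two determinations.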

In assay [2] the target is human GABAA α2β2γ1 receptor (Homo sapiens (Human), UniProt P47869+Q8N1C3). In words: Radioligand binding assay, competition for [3H]RO7239181, γ1-containing GABAA subtypes. The note with it: Ki h-GABAA α2β2γ1, membranes of HEK293F cells, [3H]RO7239181 20-30 nM.
Assay [3] has as its target human GABAA α5β2γ1 receptor (Homo sapiens (Human), UniProt P31644+Q8N1C3). The description is as above.

For the molecule `Cc1nnc2n1-c1sc3c(c1C(c1c(F)cccc1F)=N[C@H]2C)CCCCO3` [Example 19, (7S)-9-(2,6-difluorophenyl)-3,7-dimethyl-16-oxa-18-thia-2,4,5,8-tetrazatetracyclo[8.8.0.02,6.011,17]octadeca-1(10),3,5,8,11(17)-pentaene], the negative-log Ki (pKi) in assay [1] is 6.21; in assay [2] (Table 1) it was 7.77; in assay [2] (Table 2), 7.77; in assay [3], 8.73. For the same molecule, the “γ2/γ1 Selectivity Ratio” value in assay [1] amounted to 36.5. For the same molecule, the LogSel in assay [1] worked out at 1.56.

`Cc1nc2n(n1)-c1sc3c(c1C(c1c(F)cccc1F)=N[C@H]2C)COCCC3` [Example 57, (7S)-9-(2,6-difluorophenyl)-4,7-dimethyl-13-oxa-18-thia-2,3,5,8-tetrazatetracyclo[8.8.0.02,6.011,17]octadeca-1(10),3,5,8,11(17)-pentaene]: the negative-log Ki (pKi) is 5.35 in assay [1], 8.14 in assay [2] (Table 1), 8.14 in assay [2] (Table 2) and 8.82 in assay [3]. In addition, in assay [1], the “γ2/γ1 Selectivity Ratio” value came to 615.2. Besides, the LogSel in assay [1] turned out to be 2.79.
